Experimental data from patent US10683297B2 (Sunshine Lake Pharma Co., Ltd., priority 2017, dated 2020).

How the values were obtained:
[1] = Compound stability in human liver microsomes; format: in vitro ADME; conditions: for half-life at 5 μM: human liver microsomes 0.5 mg protein/mL, compound 5 μM, NADPH 1.0 mM, pH 7.4, 37° C., read-out: Human T1/2; for CLint scaled at 5 μM: liver microsomes, pH 7.4, in vivo CLint extrapolated from human liver microsome incubation
Method: (§1) The LC/MS/MS system used in the analysis consists of an Agilent 1200 Series vacuum degasser, binary pump, well-plate autosampler, thermostatted column compartment, the Agilent G6430 Triple Quadrupole Mass Spectrometer with an electrosprayionization (ESI) source. Quantitative analysis was carried out using MRM mode. The parameters for MRM transitions are in the Table A.
(§2) An Agilent XDB-C18, 2.1×30 mm, 3.5 μM column was used for the analysis. 5 μL of the samples were injected. Analysis condition: The mobile phase was 0.1% formic acid in water (A) and 0.1% formic acid in methanol (B). The flow rate was 0.4 mL/min. And the gradient of Mobile phase was in the Table B.
(§3) Alternatively, an Agilent 6330 series LC/MS/MS spectrometer equipped with G1312A binary pumps, a G1367A autosampler and a G1314C UV detector were used in the analysis. An ESI source was used on the LC/MS/MS spectrometer. The analysis was done in positive ion mode as appropriate and the MRM transition for each analyte was optimized using standard solution. A Capcell MP-C18 100×4.6 mm I.D., 5 uM column (Phenomenex, Torrance, Calif., USA) was used during the analysis. The mobile phase was 5 mM ammonia acetate, 0.1% MeOH in water (A): 5 mM ammonia acetate, 0.1% MeOH in acetonitrile (B) (70/30, v/v). The flow rate was 0.6 mL/min. Column was maintained at ambient temperature. 20 μL of the samples were injected.
(§4) Human or rat liver microsomes incubations were conducted in duplicate in polypropylene tubes. The typical incubation mixtures consisted of human or rat liver microsomes (0.5 mg protein/mL), compounds of interest (5 μM) and NADPH (1.0 mM) in a total volume of 200 μL potassium phosphate buffer (PBS, 100 mM, pH 7.4). Compounds were dissolved in DMSO and diluted with PBS such that the final concentration of DMSO was 0.05%. The enzymatic reactions were commenced with the addition of […] after a 3-min preincubation and incubated in a water bath open to the air at 37° C. Reactions were terminated at various time points (0, 5, 10, 15, 30, 60 min) by adding equal volume of ice-cold acetonitrile. The samples were stored at […] until LC/MS/MS assays.
(§5) The concentrations of compounds in the incubation mixtures of human or rat liver microsomes were determined by a LC/MS/MS method. The ranges of the linearity in the concentration range were determined for each tested compounds.
(§6) A parallel incubation was performed using denatured microsomes as the negative control, and reactions were terminated at various time points (0, 15, 60 min) after incubation at 37° C.
(§7) Dextromethorphan (70 μM) was selected as the positive control, and reactions were terminated at various time points (0, 5, 10, 15, 30, 60 min) after incubation at 37° C. Both positive and negative control samples were included in each assay to ensure the integrity of the microsomal incubation system.
(§8) The concentrations of compounds in human or rat liver microsome incubations were plotted as a percentage of the relevant zero time point control for each reaction. The in vivo CLint were extrapolated (ref.: Naritomi, Y.; Terashita, S.; Kimura, S.; Suzuki, A.; Kagayama, A.; and Sugiyama, Y.; Prediction of human hepatic clearance from in vivo animal experiments and in vitro metabolic studies with liver microsomes from animals and humans. Drug Metab. Dispos., 2001, 29: 1316-1324).

[2] = Compound stability in rat liver microsomes; format: in vitro ADME; conditions: for CLint scaled at 5 μM: liver microsomes, pH 7.4, in vivo CLint extrapolated from rat liver microsome incubation; for half-life at 5 μM: rat liver microsomes 0.5 mg protein/mL, compound 5 μM, NADPH 1.0 mM, pH 7.4, 37° C., read-out: Rat T1/2
Method: as §1, §2, §3, §4, §5, §6, §7, §8

[3] = target: T1, JAK1 (h) (Homo sapiens, UniProt P23458); experiment: JAK1 (h) kinase assay; format: biochemical; conditions: [γ-33P-ATP] 10 μM or KM values; 40 minutes at room temperature
T1 construct: purchased Millipore UK Ltd (assays performed there as a service)
T1 sequence (P23458 whole entry): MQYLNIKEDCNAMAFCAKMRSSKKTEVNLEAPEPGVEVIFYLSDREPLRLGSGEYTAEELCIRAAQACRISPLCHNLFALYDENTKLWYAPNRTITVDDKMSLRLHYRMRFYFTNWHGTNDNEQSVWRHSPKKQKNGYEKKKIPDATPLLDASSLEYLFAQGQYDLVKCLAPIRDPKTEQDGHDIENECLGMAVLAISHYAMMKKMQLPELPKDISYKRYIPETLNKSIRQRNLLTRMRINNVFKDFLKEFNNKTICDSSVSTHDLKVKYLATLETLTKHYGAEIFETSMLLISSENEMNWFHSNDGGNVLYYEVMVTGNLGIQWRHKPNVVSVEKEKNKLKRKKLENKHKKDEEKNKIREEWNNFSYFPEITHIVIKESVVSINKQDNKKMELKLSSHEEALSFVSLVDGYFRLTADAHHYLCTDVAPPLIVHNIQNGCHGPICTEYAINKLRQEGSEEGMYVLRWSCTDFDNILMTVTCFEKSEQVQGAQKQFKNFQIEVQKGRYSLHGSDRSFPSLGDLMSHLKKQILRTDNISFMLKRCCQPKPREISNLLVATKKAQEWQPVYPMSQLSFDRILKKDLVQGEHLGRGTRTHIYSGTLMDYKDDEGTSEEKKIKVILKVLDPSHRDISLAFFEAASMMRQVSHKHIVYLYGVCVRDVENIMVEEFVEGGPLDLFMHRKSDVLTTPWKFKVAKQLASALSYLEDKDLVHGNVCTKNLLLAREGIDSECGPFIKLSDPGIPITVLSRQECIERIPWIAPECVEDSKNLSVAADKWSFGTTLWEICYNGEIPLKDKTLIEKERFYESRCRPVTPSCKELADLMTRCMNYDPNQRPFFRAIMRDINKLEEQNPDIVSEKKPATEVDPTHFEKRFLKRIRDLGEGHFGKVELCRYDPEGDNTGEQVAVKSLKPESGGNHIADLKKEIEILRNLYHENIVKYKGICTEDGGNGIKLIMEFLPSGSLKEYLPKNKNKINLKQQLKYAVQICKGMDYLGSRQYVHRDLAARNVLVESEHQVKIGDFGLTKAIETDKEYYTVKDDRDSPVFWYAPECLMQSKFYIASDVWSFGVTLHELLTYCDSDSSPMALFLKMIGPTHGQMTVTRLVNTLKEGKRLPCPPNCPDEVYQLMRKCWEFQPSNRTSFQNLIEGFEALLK
Method: The above assay procedure can be used to determine the IC50 for inhibition and/or the inhibition constant, Ki. […] The IC50 value is estimated by preparing a 10 point curve using a ½ log dilution series (for example, a typical curve may be prepared using the following compound concentrations: 3 μM, 1 μM, 0.3 μM, 0.1 μM, 0.03 μM, 0.01 μM, 0.003 μM, 0.001 μM, 0.0003 μM and 0 μM).
JAK1 (h) is incubated with 20 mM Tris/HCl pH 7.5, 0.2 mM EDTA, 500 μM […], 10 mM MgAcetate and [γ-^33P-ATP] […] The reaction is initiated by the addition of the MgATP mix. After incubation for 40 minutes at room temperature, the reaction is stopped by the addition of 3% phosphoric acid solution. 10 μL of the reaction is then spotted onto a P30 filtermat and washed three times for 5 minutes in 75 mM phosphoric acid and once in methanol prior to drying and scintillation counting.
The kinase assays described herein were performed at Millipore UK Ltd, Dundee Technology Park, Dundee DD2 1SW, UK.

[4] = Pharmacokinetics after intravenous and oral administration in rats; format: in vivo
Method: as §1, §2, §3
The compounds disclosed herein are assessed in pharmacokinetic studies in mice, rats, dogs or monkeys. The compounds are administered as a water solution, 2% HPMC+1% TWEEN®80 in water solution, 5% DMSO+5% solutol in saline, 4% MC suspension or capsule. For the intravenous administration, the animals are generally given at about 0.5, 0.6, 1 or 2 mg/kg dose. For the oral (p.o.) dosing, mice and rats are generally given 5 or 10 mg/kg dose, and dogs and monkeys are generally given 10 mg/kg dose. The blood samples (0.3 mL) are drawn at 0.25, 0.5, 1.0, 2.0, 3.0, 4.0, 6.0, 8.0, 12 and 24 h time points or 0.083, 0.25, 0.5, 1.0, 2.0, 4.0, 6.0, 8.0 and 24 h time points and centrifuged at 3,000 or 4000 rpm for 2 to 10 min. The plasma solutions are collected, and stored at […] until analyzed by LC/MS/MS as described above.

[5] = rat, plasma, iv dosing, dose 1 mg/kg (Ex. 9: 0.6, Ex. 18: 0.5, Ex. 50: 0.96 mg/kg)

half-life at 5 μM [1] | CLint scaled at 5 μM [1] | CLint scaled at 5 μM [2] | half-life at 5 μM [2] | IC50 [3] | Clearance (CL) after iv dosing ([4]; iv dosing, dose 1 mg/kg (Ex. 9: 0.6, Ex. 18: 0.5, Ex. 50: 0.96 mg/kg)) | AUC(0-t) [4, 5] | half-life [4, 5] | Vd ([4]; rat, plasma, iv dosing, dose 1 mg/kg (Ex. 9: 0.6, Ex. 18: 0.5, Ex. 50: 0.96 mg/kg), read-out: Vss) | bioavailability ([4]; rat, plasma, oral (generally 5 or 10 mg/kg) versus iv dosing, read-out: F (oral bioavailability)) | SMILES
21.8 min | 79.8 mL/min/kg | 23.3 mL/min/kg | 107 min | 0.5 nM | – | – | – | – | – | Cc1cnc2ccc(Nc3ncc(Cl)c(NC4CCN(c5ccc(C#N)nn5)CC4)n3)cn12 [Example 13, 6-(4-((5-chloro-2-((3-methylimidazo[1,2-a]pyridin-6-yl)amino)pyrimidin-4-yl)amino)piperidin-1-yl)pyridazine-3-carbonitrile]
26.1 min | 66.7 mL/min/kg | 232 mL/min/kg | 10.7 min | 3 nM | – | – | – | – | – | N#Cc1ccc(N2CCC(Nc3nc(Nc4ccn5c(C6CC6)cnc5c4)ncc3Cl)CC2)nn1 [Example 14, 6-(4-((5-chloro-2-((3-cyclopropylimidazo[1,2-a]pyridin-7-yl)amino)pyrimidin-4-yl)amino)piperidin-1-yl)pyridazine-3-carbonitrile]
153 min | 11.3 mL/min/kg | 30 mL/min/kg | 82.7 min | 0.5 nM | – | – | – | – | – | Cc1nnc2cc(Nc3ncc(Cl)c(NC4CCN(c5ccc(C#N)nn5)CC4)n3)ccn12 [Example 20, 6-(4-((5-chloro-2-((3-methyl-[1,2,4]triazolo[4,3-a]pyridin-7-yl)amino)pyrimidin-4-yl)amino)piperidin-1-yl)pyridazine-3-carbonitrile]
– | – | – | – | < 0.3 nM | 11.8 mL/min/kg | 1420 ng·h/mL | 43.2 min | 0.84 L/kg | 37% | Cc1cnc2cc(Nc3ncc(Cl)c(NC4CCN(c5ccc(C#N)cn5)CC4)n3)cnn12 [Example 21, 6-(4-((5-chloro-2-((3-methylimidazo[1,2-b]pyridazin-7-yl)amino)pyrimidin-4-yl)amino)piperidin-1-yl)nicotinonitrile]
61 min | 28.5 mL/min/kg | 54.9 mL/min/kg | 45.2 min | 3 nM | – | – | – | – | – | Cc1nnc2cc(Nc3ncc(Cl)c(NC4CCN(c5ccc(C#N)cn5)CC4)n3)cnn12 [Example 25, 6-(4-((5-chloro-2-((3-methyl-[1,2,4]triazolo[4,3-b]pyridazin-7-yl)amino)pyrimidin-4-yl)amino)piperidin-1-yl)nicotinonitrile]
23.5 min | 74.1 mL/min/kg | 57.5 mL/min/kg | 43.2 min | < 0.3 nM | – | – | – | – | – | CC(O)c1cnc2cc(Nc3ncc(Cl)c(NC4CCN(c5ccc(C#N)cn5)CC4)n3)ccn12 (stereo not drawn) [Example 43, 6-(4-((5-chloro-2-((3-(1-hydroxyethyl)imidazo[1,2-a]pyridin-7-yl)amino)pyrimidin-4-yl)amino)piperidin-1-yl)nicotinonitrile]
69.3 min | 25.1 mL/min/kg | 86.8 mL/min/kg | 28.6 min | 0.7 nM | – | – | – | – | – | CC(C)(F)c1nc2cc(Nc3ncc(Cl)c(NC4CCN(c5ccc(C#N)cn5)CC4)n3)ccn2n1 [Example 59, 6-(4-((5-chloro-2-((2-(2-fluoropropan-2-yl)-[1,2,4]triazolo[1,5-a]pyridin-7-yl)amino)pyrimidin-4-yl)amino)piperidin-1-yl)nicotinonitrile]
40.3 min | 43.2 mL/min/kg | 249 mL/min/kg | 10 min | 0.5 nM | – | – | – | – | – | CC(C)(O)Cn1cnc2cc(Nc3ncc(Cl)c(NC4CCN(c5ccc(C#N)cn5)CC4)n3)ccc21 [Example 64, 6-(4-((5-chloro-2-((1-(2-hydroxy-2-methylpropyl)-1H-benzo[d]imidazol-5-yl)amino)pyrimidin-4-yl)amino)piperidin-1-yl)nicotinonitrile]
25.6 min | 67.9 mL/min/kg | 68.5 mL/min/kg | 36.2 min | 0.3 nM | – | – | – | – | – | CC(C)(O)c1cnc2cc(Nc3ncc(Cl)c(NC4CCN(c5ccc(C#N)nn5)CC4)n3)ccn12 [Example 66, 6-(4-((5-chloro-2-((3-(2-hydroxypropan-2-yl]imidazo[1,2-a]pyridin-7-yl)amino)pyrimidin-4-yl)amino)piperidin-1-yl)pyridazine-3-carbonitrile]
18.9 min | 91.8 mL/min/kg | 438 mL/min/kg | 5.67 min | 0.9 nM | – | – | – | – | – | CC(C)(O)c1cn2ccc(Nc3ncc(Cl)c(NC4CCN(c5ccc(C#N)nn5)CC4)n3)cc2n1 [Example 71]
40.7 min | 42.7 mL/min/kg | 131 mL/min/kg | 19 min | 0.6 nM | – | – | – | – | – | CC(C)(O)Cc1cnc2cc(Nc3ncc(Cl)c(NC4CCN(c5ccc(C#N)nn5)CC4)n3)ccn12 [Example 80, 6-(4-((5-chloro-2-((3-(2-hydroxy-2-methylpropyl)imidazo[1,2-a]pyridin-7-yl)amino)pyrimidin-4-yl)amino)piperidin-1-yl)pyridazine-3-carbonitrile]
– | – | – | – | 2 nM | – | – | – | – | – | CC(C)(O)c1nc2cc(Nc3ncc(Cl)c(NC4CCN(c5ccc(C#N)cn5)CC4F)n3)ccn2n1 (stereo not drawn) [Example 89, 6-(4-((5-chloro-2-((2-(2-hydroxypropan-2-yl)-[1,2,4]triazolo[1,5-a]pyridin-7-yl)amino)pyrimidin-4-yl)amino)-3-fluoropiperidin-1-yl)nicotinonitrile]
